Source: patent US7655431B2, “Compositions and methods based upon the kinase haspin” (The Brigham and Women's Hospital, Inc., priority 2004, dated 2010)
Where “and” joins values, the source holds several entries; their conditions need not be identical. Equal entries are not always repeated.

What was measured:
[1] = tested on: HeLa Tet-On cells transfected with vector alone; assay: proliferation and cell cycle of vector-transfected HeLa Tet-On cells with doxycycline; format: cell-based, human
Text: Using customized double stranded adapters, full length human haspin cDNA (amino acids 1-798, Higgins, Gene 267:55-69 (2001)) was ligated into the Hind III-Xba I sites of the expression vector pcDNA3 (Invitrogen) and, to generate myc-tagged haspin, cDNA encoding residues 2-798 was inserted into the pcDNA3-derived plasmid pCANmyc1. To generate a plasmid encoding EGFP-haspin, haspin cDNA encoding amino acids 2-798 is inserted into the Sac II-BamH I sites of pEGFP-C1 (Clontech). To generate inducible vectors, cDNA encoding myc-haspin from pCANmyc-haspin (Hind III-EcoR V) is blunt-ended and inserted into the Pvu II site of pTRE2/pur (BD Clontech) and Nhe I-Xba I fragments encoding EGFP-haspin or EGFP alone from pEGFP-haspin or pEGFP-C1, respectively are ligated into the Nhe I site of pTRE2pur. All constructs are verified by DNA sequencing. Transient transfection is carried out using Lipofectamine 2000 (Invitrogen). Stable transfection of HeLa Tet-On (BD Clontech) cells is carried out using Lipofectin with Plus Reagent (Invitrogen). After 24 h, cells are transferred to 96-well plates and incubated in medium containing 1 μg/ml puromycin and 100 μg/ml G418. Clones expressing myc-haspin or EGFP-haspin in the presence, but not absence, of 1 μg/ml doxycycline are selected by anti-myc immunoblotting or flow cytometric analysis of EGFP fluorescence respectively. […]

[2] = target: T1, 6His-haspin kinase (Homo sapiens, UniProt Q8TF76); assay: ELISA-based microtiter plate haspin kinase assay; format: biochemical; conditions: 100 μM ATP, 10 mM MnCl2, 20 min 37° C.
T1 construct: insertion of a PCR product encoding residues 471-798 of human haspin into the PshA I site of the vector pET45b(+); 6His (N); made in house; host or cells: E. coli BL21
T1 sequence (Q8TF76 471-798): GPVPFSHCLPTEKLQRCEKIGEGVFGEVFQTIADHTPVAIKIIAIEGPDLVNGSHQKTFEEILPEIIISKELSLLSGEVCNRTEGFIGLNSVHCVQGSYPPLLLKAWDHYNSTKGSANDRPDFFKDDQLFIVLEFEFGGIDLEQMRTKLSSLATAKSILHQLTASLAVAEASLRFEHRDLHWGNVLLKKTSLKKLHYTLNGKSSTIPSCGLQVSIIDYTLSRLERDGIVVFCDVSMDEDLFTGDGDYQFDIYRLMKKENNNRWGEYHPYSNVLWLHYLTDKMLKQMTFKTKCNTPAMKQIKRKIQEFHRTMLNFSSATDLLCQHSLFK
Protocol: In these assays, H3-GST substrate protein (or H3-T3A-GST non-phosphorylable control) was immobilized on 96-well microtiter plates by incubation in PBS overnight at 4° C. Following washing and blocking with 1% BSA/TBS, 6His-haspin kinase was added to the wells in 50 μl total volume of Hepes-buffered saline (HBS)/100 μM ATP/10 mM MnCl2 and allowed to phosphorylate the immobilized substrate for 20 min at 37° C. After washing thrice with TBS/0.1% Tween-20, affinity-purified polyclonal anti-phospho-histone H3 (Thr-3) antibodies were added for 1 h at room temperature. After washing, antibody binding (i.e. phosphorylation) was detected using 1/2000 dilution of donkey anti-rabbit IgG-Horse Radish […] (HRP) conjugate (Jackson) followed by tetramethylbenzidine (TMB) color development (BD Biosciences). Measurement of A450 nm-A570 nm (to correct for well-to-well variation in background absorbance) was carried out after addition of H2SO4.

Compound	cell number relative to uninduced control ([1]; after 8 days, two experiments, vector alone)	cell cycle progression ([1]; vector-transfected cells)	haspin kinase activity (phosphorylation of immobilized H3-GST) [2]
C[C@H]1c2cccc(O)c2C(=O)C2=C(O)[C@]3(O)C(=O)C(C(N)=O)=C(O)[C@@H](N(C)C)[C@@H]3[C@@H](O)[C@@H]21 [Doxycycline, doxycycline]	104% and 115%	no effect	–
O=C(O)CN(CCN(CC(=O)O)CC(=O)O)CC(=O)O [EDTA]	–	–	inhibition
ARTKQTAR [H3(1-8)]	–	–	inhibition
